From patent US11279703B2, “Fused pyrimidine compounds as BRD4 and JAK2 dual inhibitors and methods for use thereof” (APTOSE BIOSCIENCES INC., priority 2016, dated 2022)
Like-named read-outs stand apart in the source and are kept apart here.

What was measured:
BRD4-BD1 = BRD4-BD1 (Homo sapiens (Human), UniProt O60885); assay: AlphaLisa bromodomain binding assay, BRD4-BD1
Source text: An AlphaLisa assay was used to observe bromodomain binding and measure IC50s for the compounds disclosed herein. An AlphaLisa assay is a bead-based assay used to detect interactions between bromodomains and polyacetylated histone peptides. Donor and acceptor beads bound to target and ligand are brought into proximity by this protein-protein interaction.
Equipment Required • 1. […] Plate centrifuge • 3. Plate shaker • 4. […] Single channel and multi-channel pipettes • 6. Microplate reader (Pherastar)
Stock and Final Assay Concentrations (FAC) • 1. All reference and test compounds are made at a concentration of 10 mM in DMSO. Compounds are serially diluted in DMSO and a FAC starting from 10 μM to 10 point 3 fold serial dilutions is arrived. FAC of DMSO is 1%. • 2. Enzyme stock and FAC
Biotinylated substrate (Acetylated histone H4, biotinylated substrate—cat no. AS64989-025, Anaspec) stock and FAC
• 4. Acceptor and donor beads stock and FAC
Buffers • For the enzyme and substrate dilution following buffer is used (for 50 ml) • HEPES: 50 mM 2.5 ml • NaCl: 25 mM 1.25 ml • DTT: 10 mM 0.05 ml • BSA: 0.1% 0.05 g • MilliQ water: 45.7 ml • For dilution of acceptor and donor beads AlphaLISA 5× epigenetics Buffer Perkin Elmer (Cat: AL008C) is used at 1× concentration.
Procedure • 1. […] Tap the plate gently • 3. […] Cover with plate sealer • 5. […] Incubate the plate at room temperature for 10 minutes • 7. Add 10 μl of the substrate • 8. Cover with plate sealer • 9. […] Cover with plate sealer • 14. […] Cover with plate sealer • 18.
(§1) The percent inhibition is calculated in the excel analysis template and the IC50 values are subsequently determined using a sigmoidal dose-response curve (variable slope) using GraphPad Prism® 5 software.

JAK2 = JAK2 (Homo sapiens (Human), UniProt O60674); assay: HTRF kinase assay, JAK2; type: biochemical
Source text: A kinase assay with HTRF was used to observe JAK activity and calculate the IC50s of compounds disclosed herein. HTRF is an enzymatic assay used to determine the amount of phosphorylated peptide. FRET (Fluorescence Resonance Energy Transfer) is based on the transfer of energy between two fluorophores—a donor and an acceptor—when in close proximity. Molecular interactions between biomolecules can be assessed by coupling each partner with a fluorescent label and by detecting the level of energy transfer. The amount of phopshorylated peptide can be detected using a combination of a Eu 3+Cryptate labeled anti-phospho residue antibody, SA-XL665 and a biotinylated substrate. The signal is proportional to the concentration of phospho-residues.
Equipment Required • 1. […] Plate centrifuge • 3. Plate shaker • 4. […] Single channel and multi-channel pipettes • 6. Microplate reader (Pherastar)]
Stock and Final Assay Concentrations (FAC) • 1. All reference and test compounds are made at a concentration of 10 mM in DMSO. Compounds are serially diluted in DMSO and a FAC starting from 10 μM to 10 point 3 fold serial dilutions is arrived. For Ruxolitinib the starting FAC is 1 μM. FAC of DMSO is 1%. • 2. Enzyme stock and FAC
• JAK-1: Invtirogen Cat: PR8767C • JAK-2: Invtirogen Cat: PR7820B • JAK-3: Invtirogen Cat: PR7507B • 3. Substrate (synthetic peptide-Biotinylated-N-terminal tag-[…] from Biopeptide) stock and FAC
• Adenosine 5′-triphosphate disodium salt hydrate: Sigma Cat: A26209 • 5. […] Buffers • Base buffer (for 50 ml)
• HTRF buffer: • 50 mM Tris-HCl, pH—7.5 • 100 mM NaCl • 0.1% BSA • 0.05% Tween20 • 0.5 mM EDTA
To a 384 well black-plate: • 1. Add 17 μL of the buffer to each well of the 384-well black plate • 2. […] Add 5 μl of the enzyme to each well of the plate • 4. Add 10 μl of the substrate and ATP mix to all the wells • 5. Cover with plate sealer • 6. […] Incubate at room temperature for 1 hour on shaker • 8. […] Add 37.5 μL of the HTRF mix to these wells. • 9. Incubate the plate at room temperature on shaker for 45 minutes. • 10.
as §1

[1] = Table 6, read-out: BRD4(1) IC50

Sequence of JAK2 (O60674 whole entry): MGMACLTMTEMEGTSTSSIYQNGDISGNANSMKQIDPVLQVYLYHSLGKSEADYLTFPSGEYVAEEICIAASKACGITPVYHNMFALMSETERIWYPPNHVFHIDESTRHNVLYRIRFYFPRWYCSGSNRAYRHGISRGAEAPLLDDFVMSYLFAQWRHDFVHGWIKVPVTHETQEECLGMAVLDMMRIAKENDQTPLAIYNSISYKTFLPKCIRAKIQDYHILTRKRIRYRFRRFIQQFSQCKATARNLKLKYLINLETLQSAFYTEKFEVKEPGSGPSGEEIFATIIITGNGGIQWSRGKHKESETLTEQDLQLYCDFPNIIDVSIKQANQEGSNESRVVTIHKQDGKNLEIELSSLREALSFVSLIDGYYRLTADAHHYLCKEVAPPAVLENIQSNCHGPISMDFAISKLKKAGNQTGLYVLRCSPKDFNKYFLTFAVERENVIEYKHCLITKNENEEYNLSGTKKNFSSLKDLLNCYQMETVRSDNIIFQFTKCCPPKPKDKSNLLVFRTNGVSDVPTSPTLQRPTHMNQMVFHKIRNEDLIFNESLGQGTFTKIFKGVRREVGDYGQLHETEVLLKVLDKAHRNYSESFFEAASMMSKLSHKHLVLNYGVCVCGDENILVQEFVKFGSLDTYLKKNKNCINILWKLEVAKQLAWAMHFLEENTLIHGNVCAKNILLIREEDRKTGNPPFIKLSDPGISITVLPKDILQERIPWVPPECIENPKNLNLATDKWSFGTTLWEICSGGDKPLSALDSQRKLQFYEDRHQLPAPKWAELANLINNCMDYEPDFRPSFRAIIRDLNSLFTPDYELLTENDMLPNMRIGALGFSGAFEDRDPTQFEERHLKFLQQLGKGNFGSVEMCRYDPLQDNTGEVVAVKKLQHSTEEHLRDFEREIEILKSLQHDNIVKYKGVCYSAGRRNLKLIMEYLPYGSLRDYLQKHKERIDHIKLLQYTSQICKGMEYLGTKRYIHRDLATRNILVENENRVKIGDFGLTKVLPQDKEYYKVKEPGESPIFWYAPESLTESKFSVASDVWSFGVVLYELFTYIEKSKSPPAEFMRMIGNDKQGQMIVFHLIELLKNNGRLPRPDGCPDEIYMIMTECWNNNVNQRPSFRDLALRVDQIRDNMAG

Structure (SMILES) | IC50 (BRD4-BD1; [1]) | IC50 (JAK2; Table 6) | further results
CN(C)C1CCN(c2ccc(Nc3ncc4ccn(-c5cccc(NS(=O)(=O)C(C)(C)C)c5)c4n3)cc2)CC1 [drawing 409] | 229 nM | 6.5 nM | 
CN1CCN(c2ccc(Nc3nc(-n4ccc(C(=O)NC5CC5)c4)c4ccsc4n3)cc2F)CC1 | 10000 nM | 10000 nM | 
COc1cc(N2CCN(C)CC2)ccc1Nc1ncc2ccn(-c3cccc(NS(=O)(=O)C(C)(C)C)c3)c2n1 | 1600 nM | 2800 nM | 
CNC1CCN(c2ccc(Nc3ncc4scc(-c5cccc(NS(=O)(=O)C(C)(C)C)c5)c4n3)cc2F)CC1 | 431 nM | 2 nM | 
CC(C)(C)S(=O)(=O)Nc1cccc(Nc2nc(NC3CC4CC3CN4)nc3sccc23)c1 (stereo not shown) | 260 nM | 4170 nM | 
CN1C(=O)CCc2cc(Nc3ncc4ccn(-c5cccc(NS(=O)(=O)C(C)(C)C)c5)c4n3)ccc21 | 3200 nM | 35 nM | 
CC(C)(C)S(=O)(=O)Nc1cc(-n2ccc3cnc(Nc4ccc(N5CCN(S(C)(=O)=O)CC5)c(F)c4)nc32)ccc1F | 1400 nM | 400 nM | 
NC(=O)N1CCN(c2ccc(Nc3ncc4ccn(-c5cccc(NS(=O)(=O)C6CC6)c5)c4n3)cc2)CC1 | 10000 nM | 11 nM | 
CN(C)C1CCN(c2ccc(Nc3ncc4ccn(-c5cccc(NS(=O)(=O)C(C)(C)C)c5)c4n3)cc2F)CC1 [drawing 401] | 377 nM | 4.4 nM | 
CN1CCC(NC(=O)c2ccc(Nc3ncc4ccn(-c5ccc(F)c(NS(=O)(=O)C6CC6)c5)c4n3)cc2)CC1 | 1130 nM | 152 nM | 
CN(C)CC1CCN(c2ccc(Nc3ncc4ccn(-c5ccc(F)c(NS(=O)(=O)C(C)(C)C)c5)c4n3)cc2F)CC1 | 143 nM | 83 nM | 
CN1CCN(c2ccc(Nc3ncc4cccc(-c5cccc(NS(=O)(=O)C(C)(C)C)c5)c4n3)cc2)CC1 | 3800 nM | 10 nM | 
CN1CCC(Nc2nc(Nc3ccc(Cl)c(NS(=O)(=O)C(C)(C)C)c3)c3sccc3n2)CC1 | 900 nM | 10000 nM | 
CN1CCN(c2ccc(Nc3ncc4ccn(-c5ccc(CNS(=O)(=O)C(C)(C)C)cc5)c4n3)cc2)CC1 [drawing 378] | 10000 nM | 0.18 nM | 
CN1CCN(c2ccc(Nc3ncc4ccn(-c5cccc(NS(=O)(=O)C6CC6)c5)c4n3)cc2)CC1 [drawing 74] |  |  | IC50 (BRD4-BD1; Table 5, read-out: BRD4 IC50): 355 nM; IC50 (JAK2; Table 5): 2.5 nM
COc1nc(NC2CCNCC2)nc2c1ccn2-c1cccc(NS(=O)(=O)C(C)(C)C)c1 | 122 nM | 3010 nM | 
CC(C)(C)S(=O)(=O)Nc1cccc(-n2ccc3cnc(Nc4ccc(N5CCNCC5)cc4)nc32)c1 [drawing 306] | 394 nM | 10 nM | 
CN1CCN(c2ccc(Nc3nccc(Nc4cccc5c4CC(=O)N5)n3)cc2)CC1 |  | 387 nM | 
Cc1sc2c(c1C)C(c1ccc(Cl)cc1)=N[C@@H](CC(=O)OC(C)(C)C)c1nnc(C)n1-2 |  | 10000 nM | 
CN1CCN(c2ccc(Nc3ncc4ccn(-c5ccc6c(c5)CCN6S(=O)(=O)C(C)(C)C)c4n3)cc2)CC1 [drawing 71] |  |  | IC50 (JAK2; Table 4): 0.6 nM
CN1CCN(c2ccc(Nc3ncc4scc(-c5cccc(NS(=O)(=O)C(C)(C)C)c5)c4n3)cc2)CC1 |  |  | IC50 (JAK2; Table 3): 4.8 nM
CN1CCN(c2ccc(Nc3ncc4ccn(-c5cccc(NS(=O)(=O)C6CC6)c5)c4n3)cc2)CC1 [drawing 64] |  |  | IC50 (JAK2; Table 3): 4.3 nM
Cc1noc(C)c1-c1cccc(-n2ccc3cnc(Nc4ccc(N5CCN(C)CC5)cc4)nc32)c1 [drawing 67] |  |  | IC50 (JAK2; Table 3): 3 nM
O=C1Cc2c(cccc2-c2ccnc(Nc3ccccc3)n2)N1 |  | 6780 nM | 

Structure (SMILES) | IC50 (BRD4-BD1; [1]) | IC50 (JAK2; Table 6) | further results
O=S(=O)(Nc1cccc(-n2ccc3cnc(Nc4ccc(N5CCNCC5)cc4)nc32)c1)C1CC1 [drawing 68] |  |  | IC50 (JAK2; Table 3): 5 nM
CN1CCN(c2ccc(Nc3ncc4ccn(-c5cccc(NS(=O)(=O)c6ccccc6)c5)c4n3)cc2)CC1 [drawing 62] |  |  | IC50 (JAK2; Table 3): 3 nM
CC(=O)N1CCN(c2ccc(Nc3ncc4ccn(-c5cccc(NS(=O)(=O)C(C)(C)C)c5)c4n3)cc2)CC1 |  | 45 nM | 
Cc1cnc(Nc2ccc(N3CCN(C)CC3)cc2)nc1-n1ccc(C(=O)NC2CC2)c1 |  | 30 nM | 
CN1CCN(c2ccc(Nc3ncc4ccn(-c5cccc(NS(=O)(=O)C6CC6)c5)c4n3)cc2)CC1 [drawing 61] |  |  | IC50 (JAK2; Table 3): 2.5 nM
CN1CCN(c2ccc(Nc3ncc4ccn(-c5ccc(CNS(=O)(=O)C(C)(C)C)cc5)c4n3)cc2)CC1 [drawing 70] |  |  | IC50 (JAK2; Table 4): 0.18 nM
O=S(=O)(Nc1cccc(-n2ccc3cnc(Nc4ccc(N5CCNCC5)cc4)nc32)c1)C1CC1 [drawing 63] |  |  | IC50 (JAK2; Table 3): 2 nM
CC(C)(C)S(=O)(=O)N1CCc2ccc(Nc3nc(NCC4CCNCC4)nc4sccc34)cc21 [drawing 218] | 2170 nM |  | 
CC(C)(C)S(=O)(=O)Nc1cccc(Nc2nc(NC3CCNCC3)nc3sccc23)c1 [drawing 51] |  |  | IC50 (BRD4-BD1; Table 2, read-out: BRD4 IC50): 94 nM
Cc1noc(C)c1-c1cccc(-c2c[nH]c3nc(N4CCN(C)CC4)ncc23)c1 | 7190 nM |  | 
CN1CCN(c2ccc(Nc3nc4c(c(Nc5cccc(NS(=O)(=O)C(C)(C)C)c5)n3)CCNC4)cc2)CC1 | 3200 nM |  | 
COc1cccc(Nc2nccc(-c3cccc4c3CC(=O)N4)n2)c1 |  | 2250 nM | 
CN1CCC(Nc2nc(Nc3cccc(NS(=O)(=O)C(C)(C)C)c3)c3ccsc3n2)CC1 | 376 nM |  | 
CC(C)(C)S(=O)(=O)Nc1cccc(Nc2nc(NC3CCNCC3)nc3ccsc23)c1 | 608 nM |  | 
CC(C)(C)S(=O)(=O)Nc1cccc(Nc2nc(NC3CCNCC3)nc3sccc23)c1 [drawing 151] | 94 nM |  | 
CN1CCC(Nc2nc(-n3ccc(C(=O)NC4CC4)c3)c3ccsc3n2)CC1 [drawing 59] |  |  | IC50 (BRD4-BD1; Table 2, read-out: BRD4 IC50): 450 nM
CN1CCN(c2ccc(Nc3nc(Nc4cccc(NS(=O)(=O)C(C)(C)C)c4)c4ccsc4n3)cc2)CC1 [drawing 52] |  |  | IC50 (BRD4-BD1; Table 2, read-out: BRD4 IC50): 388 nM
O=C1NCCc2c1ccn2-c1cnc(Nc2ccc(F)cc2)nc1 | 11200 nM |  | 
CN1CCN(c2ccc(Nc3nc4c(c(Nc5cccc(NS(=O)(=O)C(C)(C)C)c5)n3)COC4)cc2)CC1 [drawing 188] | 526 nM |  | 
CN(C)C1CCN(c2ccc(Nc3ncc4ccn(-c5cccc(NS(=O)(=O)C(C)(C)C)c5)c4n3)cc2F)CC1 [drawing 65] |  |  | IC50 (JAK2; Table 3): 4.4 nM
CN1CCN(c2ccc(Nc3ncc4ccn(-c5ccc(NS(=O)(=O)C(C)(C)C)cc5)c4n3)cc2)CC1 [drawing 69] |  |  | IC50 (JAK2; Table 4): 0.7 nM
CC(C)(C)S(=O)(=O)N1CCc2ccc(Nc3nc(NC4CCOC4)nc4sccc34)cc21 (stereo not shown) |  |  | IC50 (BRD4-BD1; Table 2, read-out: BRD4 IC50): 3200 nM
CC(C)(C)S(=O)(=O)N1CCc2ccc(Nc3nc(NCC4CCNCC4)nc4sccc34)cc21 [drawing 56] |  |  | IC50 (BRD4-BD1; Table 2, read-out: BRD4 IC50): 1000 nM
